Experimental data published in US9255101B2 (BIOPROJECT, priority 2012, dated 2016).

Assays:
human H4 receptor [1] = target: T1, human H4 receptor (Homo sapiens, UniProt Q9H3N8);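 on IC50: membranes from SH-SY5Y cells with stable human H4 receptor expression, incubated with GDP 10 µM, radioactivity retained on filters counted by liquid scintillation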;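 on Ki: radioligand displacement of a [3H]-labelled ligand from membranes of CHO cells stably expressing human H4 receptor, bound radioactivity counted on filters by liquid scintillation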
human H4 receptor [2] = target: T1, human H4 receptor; remark: listed apart in the source

T1 sequence (Q9H3N8 whole entry): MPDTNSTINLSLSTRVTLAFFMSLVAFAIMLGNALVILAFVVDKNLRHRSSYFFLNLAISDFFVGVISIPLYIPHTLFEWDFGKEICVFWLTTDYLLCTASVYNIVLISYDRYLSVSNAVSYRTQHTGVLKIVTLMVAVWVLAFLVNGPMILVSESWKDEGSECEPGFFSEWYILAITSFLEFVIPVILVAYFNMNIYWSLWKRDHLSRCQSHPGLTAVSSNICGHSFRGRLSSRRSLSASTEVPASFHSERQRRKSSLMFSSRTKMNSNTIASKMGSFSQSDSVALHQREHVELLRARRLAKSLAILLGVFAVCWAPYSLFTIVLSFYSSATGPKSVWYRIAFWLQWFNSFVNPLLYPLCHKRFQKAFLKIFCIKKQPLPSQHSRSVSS

Molecule	Ki (human H4 receptor [1])	IC50 (human H4 receptor [2])
Cc1ccc(-c2cn3c(n2)C(OC2CCN(C)CC2)c2ccccc2CC3)s1 (stereo not drawn) [Example 96, 4-(1-methylpiperidin-4-yloxy)-2-(5-methylthiophen-2-yl)-9,10-dihydro-4H-3,10a-diaza-benzo[f]azulene]	< 300 nM	< 300 nM
Cc1c(-c2ccc(NS(=O)(=O)C3CC3)cc2)nc2n1CCc1ccccc1C2OC1CCN(C)CC1 (stereo not drawn) [Example 187, 4-[1-methyl-4-(1-methylpiperidin-4-yloxy)-9,10-dihydro-4H-3,10a-diaza-benzo[f]azulen-2-yl]-phenyl-cyclopropanesulfonamide]	< 300 nM	< 300 nM
4-(1-methylpiperidin-4-yloxy)-2-phenylethynyl-9,10-dihydro-4H-3,10a-diaza-benzo[f]azulene [Example 34]	< 300 nM	< 300 nM
